Assay results published in patent US7166440B2, “2,4,5-trichlorophenoxyalkyl carboxylic acid and a method for determining dioxins using the same” (priority 2003, dated 2007).

Test system: monoclonal antibody of clone C-1 (anti-dioxin antibody)
Assay: Competitive EIA: inhibition of binding of clone C-1 monoclonal antibody to solid-phase antigen by free dioxin
Design: species or system mouse
Details: solid-phase antigen * (haptenized product of 6-(2,4,5-trichlorophenoxy) hexanoic acid amide derivative IIa), dioxin compound 5×10^−7 M
Protocol: (§1) Using various monoclonal antibodies, the specificity of the monoclonal antibodies to dioxin isomers was examined. The monoclonal antibodies were prepared in the following manner. An antibody-producing cell was injected into the abdominal cavity of a pristane-pretreated mouse. Th ascites fluid in the abdominal cavity caused by the growth of the cells was collected, and then a monoclonal antibody was purified by affinity chromatography using a protein G-Sepharose (manufactured by BIO-RAD Co.) as a carrier. Using three antibody-producing clones C-1, C-2 and C-3, respective monoclonal antibodies were prepared. The clones C-1, C-2 and C-3 produce monoclonal antibodies with respect to dibenzodioxin having chlorine atom at the 2-, 3-, 7-, and 8-positions.
(§2) To evaluate the specificity of the monoclonal antibody was performed according to the following principles. A solid-phase antigen (competitor) and a free dioxin (ligand) are allowed to compete with each other with respect to a free monoclonal antibody (anti-dioxin antibody). If the reactivity of the monoclonal antibody and the dioxin is higher than that of the monoclonal antibody and the solid-phase antigen, the binding of the monoclonal antibody to the solid-phase antigen is reduced. This reduction of the binding of the monoclonal antibody to the solid-phase antigen can be measured by color development method. This phenomenon can be applied to evaluate the specificity.
(§3) First, the immune antigen or the compound (IIa) conjugated with BSA that was produced in Example 2 was diluted with PBS to 1 μg/ml, and divided into each well of a 96-well assay plate (manufactured by Costar, Cat. No. 3590) in an amount of 50 μl. Then, the plate was sealed and allowed to stand at room temperature for one hour. Then, each well was washed with PBS containing 0.005% of Tween 20 three times. Next, 300 μl of Block Ace (manufactured by Snow Brand Milk Products Co., Ltd.) diluted with distilled water to a concentration of 25% was supplied to each well, and the plate was sealed and allowed to stand at 37° C. for two hours. Each well was washed with PBS containing 0.005% of Tween 20 three times. Then, a 25 μl of the dioxin compound solution of a final concentration of 5×10^−7 M was added to each well. The dioxin compound solution was prepared by diluting the dioxin with a dilution solvent comprising 20% DMSO and 0.01% of Triton X100. As controls, a dilution solvent in an amount of 25 μl was added to each well. Immediately after the addition of the dioxin compound solution or the dilution solvent, 25 μl of an antibody solution diluted with PBS containing 1 mg/ml of BSA was added to each well. The assay plate was stand at room temperature for one hour with slightly shaking.
(§4) After washing with PBS containing 0.005% of Tween 20 three times, 50 μl of the diluted HRP-labeled goat anti-mouse IgG (H+L) antibody (produced by affinity purification) was added to each well. The diluted HRP-labeled antibody was prepared by diluting the purchased HRP-labeled antibody to 2000 times as much with 10% Block Ace. The plate was allowed to stand at room temperature for one hour, followed by washing with PBS containing 0.005% of Tween 20 three times. Then, 50 μl of a HRP substrate, TMB (manufactured by KPL Co., Ltd.), was added to each well and allowed to stand at room temperature for 5 to 10 min. Then, 5 μl of a 1 M phosphate solution was added to each well, and the absorbance at a wavelength of 455 nm (655 nm for the reference) was measured with a spectrophotometer for a microtiter. The reactivity was evaluated by obtaining the absorbance (B0) at the time when the dioxin compound is not added, which is a control (diluent) and the absorbance (B) at the time when the dioxin compound is added. The inhibition rate was measured based on the following equation. Inhibition rate={(B0−B)/B0}×100 (%)
(§5) Evaluation was such that the larger this inhibition rate is, the higher the specificity of the anti-dioxin antibody to the dioxin compound.

| Structure (SMILES) | Inhibition rate [%] |
| --- | --- |
| Clc1cc2oc3c(Cl)c(Cl)c(Cl)cc3c2cc1Cl [2,3,4,7,8-PeCDF] | 40.1 |
| Clc1cc2oc3cc(Cl)c(Cl)cc3c2cc1Cl [2,3,7,8-TeCDF] | 8.4 |
| Clc1cc2c(c(Cl)c1Cl)Oc1cc(Cl)c(Cl)c(Cl)c1O2 [1,2,3,6,7,8-HxCDD] | −0.3 |
| Clc1cc2c(oc3c(Cl)c(Cl)c(Cl)cc32)c(Cl)c1Cl [2,3,4,6,7,8-HxCDF] | 44.8 |
| Clc1cc2oc3c(Cl)c(Cl)c(Cl)c(Cl)c3c2cc1Cl [1,2,3,4,7,8-HxCDF] | −1.5 |
| Clc1c(Cl)c(Cl)c2c(c1Cl)Oc1c(Cl)c(Cl)c(Cl)c(Cl)c1O2 [OCDD] | 1.6 |
| Clc1cc2c(oc3cc(Cl)c(Cl)c(Cl)c32)c(Cl)c1Cl [1,2,3,6,7,8-HxCDF] | 7.0 |

Same assay, conditions: solid-phase antigen immunogen 1, dioxin compound final concentration 5×10^−7 M

| Structure (SMILES) | Inhibition rate [%] |
| --- | --- |
| Clc1cc2oc3c(Cl)c(Cl)c(Cl)cc3c2cc1Cl [2,3,4,7,8-PeCDF] | 26.5 |
| Clc1cc2oc3cc(Cl)c(Cl)cc3c2cc1Cl [2,3,7,8-TeCDF] | 1.6 |
| Clc1cc2c(c(Cl)c1Cl)Oc1cc(Cl)c(Cl)c(Cl)c1O2 [1,2,3,6,7,8-HxCDD] | 3.1 |
| Clc1cc2c(oc3c(Cl)c(Cl)c(Cl)cc32)c(Cl)c1Cl [2,3,4,6,7,8-HxCDF] | 31.1 |
| Clc1cc2oc3c(Cl)c(Cl)c(Cl)c(Cl)c3c2cc1Cl [1,2,3,4,7,8-HxCDF] | 3.3 |
| Clc1c(Cl)c(Cl)c2c(c1Cl)Oc1c(Cl)c(Cl)c(Cl)c(Cl)c1O2 [OCDD] | −2.5 |
| Clc1cc2c(oc3cc(Cl)c(Cl)c(Cl)c32)c(Cl)c1Cl [1,2,3,6,7,8-HxCDF] | 3.5 |

Test system: monoclonal antibody of clone C-2 (anti-dioxin antibody)
Assay: Competitive EIA: inhibition of binding of clone C-2 monoclonal antibody to solid-phase antigen by free dioxin
Design: species or system mouse
Details: solid-phase antigen * (haptenized product of 6-(2,4,5-trichlorophenoxy) hexanoic acid amide derivative IIa), dioxin compound 5×10^−7 M
Protocol: as §1, §2, §3, §4, §5

| Structure (SMILES) | Inhibition rate [%] |
| --- | --- |
| Clc1cc2oc3c(Cl)c(Cl)c(Cl)cc3c2cc1Cl [2,3,4,7,8-PeCDF] | 55.0 |
| Clc1cc2oc3cc(Cl)c(Cl)cc3c2cc1Cl [2,3,7,8-TeCDF] | 37.6 |
| Clc1cc2c(c(Cl)c1Cl)Oc1cc(Cl)c(Cl)c(Cl)c1O2 [1,2,3,6,7,8-HxCDD] | 2.2 |
| Clc1cc2c(oc3c(Cl)c(Cl)c(Cl)cc32)c(Cl)c1Cl [2,3,4,6,7,8-HxCDF] | 82.8 |
| Clc1cc2oc3c(Cl)c(Cl)c(Cl)c(Cl)c3c2cc1Cl [1,2,3,4,7,8-HxCDF] | −11.2 |
| Clc1c(Cl)c(Cl)c2c(c1Cl)Oc1c(Cl)c(Cl)c(Cl)c(Cl)c1O2 [OCDD] | 9.4 |
| Clc1cc2c(oc3cc(Cl)c(Cl)c(Cl)c32)c(Cl)c1Cl [1,2,3,6,7,8-HxCDF] | 5.0 |

Same assay, conditions: solid-phase antigen immunogen 2, dioxin compound final concentration 5×10^−7 M

| Structure (SMILES) | Inhibition rate [%] |
| --- | --- |
| Clc1cc2oc3c(Cl)c(Cl)c(Cl)cc3c2cc1Cl [2,3,4,7,8-PeCDF] | 40.2 |
| Clc1cc2oc3cc(Cl)c(Cl)cc3c2cc1Cl [2,3,7,8-TeCDF] | 15.3 |
| Clc1cc2c(c(Cl)c1Cl)Oc1cc(Cl)c(Cl)c(Cl)c1O2 [1,2,3,6,7,8-HxCDD] | −6.2 |
| Clc1cc2c(oc3c(Cl)c(Cl)c(Cl)cc32)c(Cl)c1Cl [2,3,4,6,7,8-HxCDF] | 28.1 |
| Clc1cc2oc3c(Cl)c(Cl)c(Cl)c(Cl)c3c2cc1Cl [1,2,3,4,7,8-HxCDF] | 5.2 |
| Clc1c(Cl)c(Cl)c2c(c1Cl)Oc1c(Cl)c(Cl)c(Cl)c(Cl)c1O2 [OCDD] | 0.1 |
| Clc1cc2c(oc3cc(Cl)c(Cl)c(Cl)c32)c(Cl)c1Cl [1,2,3,6,7,8-HxCDF] | 9.4 |

Test system: monoclonal antibody of clone C-3 (anti-dioxin antibody)
Assay: Competitive EIA: inhibition of binding of clone C-3 monoclonal antibody to solid-phase antigen by free dioxin
Design: species or system mouse
Details: solid-phase antigen * (haptenized product of 6-(2,4,5-trichlorophenoxy) hexanoic acid amide derivative IIa), dioxin compound 5×10^−7 M
Protocol: as §1, §2, §3, §4, §5

| Structure (SMILES) | Inhibition rate [%] |
| --- | --- |
| Clc1cc2oc3c(Cl)c(Cl)c(Cl)cc3c2cc1Cl [2,3,4,7,8-PeCDF] | 46.2 |
| Clc1cc2oc3cc(Cl)c(Cl)cc3c2cc1Cl [2,3,7,8-TeCDF] | 4.3 |
| Clc1cc2c(c(Cl)c1Cl)Oc1cc(Cl)c(Cl)c(Cl)c1O2 [1,2,3,6,7,8-HxCDD] | 6.7 |
| Clc1cc2c(oc3c(Cl)c(Cl)c(Cl)cc32)c(Cl)c1Cl [2,3,4,6,7,8-HxCDF] | 47.9 |
| Clc1cc2oc3c(Cl)c(Cl)c(Cl)c(Cl)c3c2cc1Cl [1,2,3,4,7,8-HxCDF] | 0.8 |
| Clc1c(Cl)c(Cl)c2c(c1Cl)Oc1c(Cl)c(Cl)c(Cl)c(Cl)c1O2 [OCDD] | −3.7 |
| Clc1cc2c(oc3cc(Cl)c(Cl)c(Cl)c32)c(Cl)c1Cl [1,2,3,6,7,8-HxCDF] | 4.1 |

Same assay, conditions: solid-phase antigen immunogen 3, dioxin compound final concentration 5×10^−7 M

| Structure (SMILES) | Inhibition rate [%] |
| --- | --- |
| Clc1cc2oc3c(Cl)c(Cl)c(Cl)cc3c2cc1Cl [2,3,4,7,8-PeCDF] | 13.0 |
| Clc1cc2oc3cc(Cl)c(Cl)cc3c2cc1Cl [2,3,7,8-TeCDF] | −1.6 |
| Clc1cc2c(c(Cl)c1Cl)Oc1cc(Cl)c(Cl)c(Cl)c1O2 [1,2,3,6,7,8-HxCDD] | 3.9 |
| Clc1cc2c(oc3c(Cl)c(Cl)c(Cl)cc32)c(Cl)c1Cl [2,3,4,6,7,8-HxCDF] | 13.2 |
| Clc1cc2oc3c(Cl)c(Cl)c(Cl)c(Cl)c3c2cc1Cl [1,2,3,4,7,8-HxCDF] | 4.9 |
| Clc1c(Cl)c(Cl)c2c(c1Cl)Oc1c(Cl)c(Cl)c(Cl)c(Cl)c1O2 [OCDD] | −0.4 |
| Clc1cc2c(oc3cc(Cl)c(Cl)c(Cl)c32)c(Cl)c1Cl [1,2,3,6,7,8-HxCDF] | 2.9 |

Test system: anti-dioxin antibody (monoclonal antibody) to 1,2,3,7,8-PeCDF
Assay: not given
Assay type: binding, mouse
Details: Table 2, dioxins having TEF; solid-phase antigen (IIa); antibody to 1,2,3,7,8-PeCDF
Protocol: as §3, §4
An anti-dioxin antibody (monoclonal antibody) to 1,2,3,7,8-PeCDF is used as an antibody. A haptenized product of a solid-phase antigen 6-(2,4,5-trichlorophenoxy) hexanoic acid amide derivative (IIa) and the chlorine-containing organic compounds in Tables 2 and 3 were allowed to compete with each other to this anti-dioxin antibody so that a competitive reaction was effected in the same manner as in Example 3. Then, the cross-reactivity was examined.

| Structure (SMILES) | cross reaction [%] |
| --- | --- |
| Clc1cc2oc3c(Cl)c(Cl)c(Cl)cc3c2cc1Cl [2,3,4,7,8-PeCDF] | 16.1 |
| Clc1cc2oc3cc(Cl)c(Cl)cc3c2cc1Cl [2,3,7,8-TeCDF] | 1.5 |
| Clc1cc2c(c(Cl)c1Cl)Oc1cc(Cl)c(Cl)c(Cl)c1O2 [1,2,3,6,7,8-HxCDD] | 18.0 |
| Clc1cc2c(oc3c(Cl)c(Cl)c(Cl)cc32)c(Cl)c1Cl [2,3,4,6,7,8-HxCDF] | 43.8 |
| Clc1cc2oc3c(Cl)c(Cl)c(Cl)c(Cl)c3c2cc1Cl [1,2,3,4,7,8-HxCDF] | 45.9 |
| Clc1c(Cl)c(Cl)c2c(c1Cl)Oc1c(Cl)c(Cl)c(Cl)c(Cl)c1O2 [OCDD] | <0.1 |
| Clc1cc2c(oc3cc(Cl)c(Cl)c(Cl)c32)c(Cl)c1Cl [1,2,3,6,7,8-HxCDF] | 36.6 |

Test system: not given
Assay: not given
Details: toxicity equivalent factor of the dioxins used; cited from earlier work

| Structure (SMILES) | TEF value |
| --- | --- |
| Clc1cc2oc3cc(Cl)c(Cl)cc3c2cc1Cl [2,3,7,8-TeCDF] | 0.1 |
| Clc1cc2c(c(Cl)c1Cl)Oc1cc(Cl)c(Cl)c(Cl)c1O2 [1,2,3,6,7,8-HxCDD] | 0.1 |
| Clc1cc2c(oc3c(Cl)c(Cl)c(Cl)cc32)c(Cl)c1Cl [2,3,4,6,7,8-HxCDF] | 0.1 |
| Clc1cc2oc3c(Cl)c(Cl)c(Cl)c(Cl)c3c2cc1Cl [1,2,3,4,7,8-HxCDF] | 0.1 |
| Clc1c(Cl)c(Cl)c2c(c1Cl)Oc1c(Cl)c(Cl)c(Cl)c(Cl)c1O2 [OCDD] | 0.0001 |
| Clc1cc2c(oc3cc(Cl)c(Cl)c(Cl)c32)c(Cl)c1Cl [1,2,3,6,7,8-HxCDF] | 0.1 |
